{"source": "paper PMC9516332", "about": "(Frontiers in Oncology, 2022)", "system": "134 cancer cell lines", "experiment": "Cell viability assay (ATPlite, 72 hours), IC50 on cancer cell line panel", "note": "Where two headings read alike, the source gives them in different places."}
{"smiles": "Cn1cnc2c(F)c(Nc3ccc(Br)cc3Cl)c(C(=O)NOCCO)cc21", "note": "[selumetinib]", "values": [{"measurement": "IC50", "setting": "Homo sapiens, MOLT-4, read-out: IC50 in cell proliferation assay, MOLT-4 cell line", "value": "> 31600", "unit": "nM"}, {"measurement": "IC50", "setting": "Homo sapiens, MV4-11, read-out: IC50 in cell proliferation assay, MV4-11 cell line (FLT3 ITD)", "value": 178, "unit": "nM"}, {"measurement": "IC50", "setting": "Homo sapiens, MeWo, read-out: IC50 in cell proliferation assay, MeWo cell line", "value": 5400, "unit": "nM"}, {"measurement": "IC50", "setting": "Homo sapiens, NCCIT, read-out: IC50 in cell proliferation assay, NCC-IT cell line", "value": 25900, "unit": "nM"}, {"measurement": "IC50", "setting": "Homo sapiens, NCI-H82, read-out: IC50 in cell proliferation assay, cell line NCI-H82", "value": 6840, "unit": "nM"}, {"measurement": "IC50", "setting": "Homo sapiens, NCI-H460, read-out: IC50 in cell proliferation assay, NCI-H460 cell line", "value": 297, "unit": "nM"}, {"measurement": "IC50", "setting": "Homo sapiens, NCI-H661, read-out: IC50 in cell proliferation assay, NCI-H661 cell line", "value": "> 31600", "unit": "nM"}, {"measurement": "IC50", "setting": "Homo sapiens, NCI-H716, read-out: IC50 in cell proliferation assay, cell line NCI-H716 (FGFR2-COL14A1)", "value": 197, "unit": "nM"}, {"measurement": "IC50", "setting": "Homo sapiens, NCI-H1650, read-out: IC50 in cell proliferation assay, NCI-H1650 cell line (EGFR exon19del)", "value": "> 31600", "unit": "nM"}, {"measurement": "IC50", "setting": "Homo sapiens, NCI-H1975, read-out: IC50 in cell proliferation assay, NCI-H1975 cell line (EGFR p.L858R + p.T790M)", "value": 1920, "unit": "nM"}, {"measurement": "IC50", "setting": "Homo sapiens, NCI-H2228, read-out: IC50 in cell proliferation assay, NCI-H2228 cell line (EML4-ALK)", "value": 294, "unit": "nM"}, {"measurement": "IC50", "setting": "Homo sapiens, OVCAR-3, read-out: IC50 in cell proliferation assay, cell line OVCAR-3", "value": "> 31600", "unit": "nM"}, {"measurement": "IC50", "setting": "Homo sapiens, PFSK-1, read-out: IC50 in cell proliferation assay, cell line PFSK-1", "value": "> 31600", "unit": "nM"}, {"measurement": "IC50", "setting": "Homo sapiens, RL95-2, read-out: IC50 in cell proliferation assay, cell line RL95-2 (EGFR p.A289V)", "value": 12, "unit": "nM"}, {"measurement": "IC50", "setting": "Homo sapiens, RPMI-7951, read-out: IC50 in cell proliferation assay, cell line RPMI-7951 (BRAF p.V600E)", "value": 143, "unit": "nM"}, {"measurement": "IC50", "setting": "Homo sapiens, RS4-11, read-out: IC50 in cell proliferation assay, cell line RS4;11", "value": 18200, "unit": "nM"}, {"measurement": "IC50", "setting": "Homo sapiens, Rec1, read-out: IC50 in cell proliferation assay, cell line REC-1", "value": "> 31600", "unit": "nM"}, {"measurement": "IC50", "setting": "Homo sapiens, SHP77, read-out: IC50 in cell proliferation assay, cell line SHP-77", "value": "> 31600", "unit": "nM"}, {"measurement": "IC50", "setting": "Homo sapiens, SK-BR-3, read-out: IC50 in cell proliferation assay, cell line SK-BR-3 (ERBB2 amplification)", "value": "> 31600", "unit": "nM"}, {"measurement": "IC50", "setting": "Homo sapiens, SK-N-AS, read-out: IC50 in cell proliferation assay, cell line SK-N-AS", "value": 20, "unit": "nM"}, {"measurement": "IC50", "setting": "Homo sapiens, SK-N-FI, read-out: IC50 in cell proliferation assay, cell line SK-N-FI", "value": 8410, "unit": "nM"}, {"measurement": "IC50", "setting": "Homo sapiens, SK-N-MC, read-out: IC50 in cell proliferation assay, cell line SK-N-MC", "value": "> 31600", "unit": "nM"}, {"measurement": "IC50", "setting": "Homo sapiens, SK-N-SH, read-out: IC50 in cell proliferation assay, cell line SK-N-SH (ALK p.F1174L)", "value": 66, "unit": "nM"}, {"measurement": "IC50", "setting": "Homo sapiens, SNU-5, read-out: IC50 in cell proliferation assay, cell line SNU-5 (MET amplification)", "value": 1310, "unit": "nM"}, {"measurement": "IC50", "setting": "Homo sapiens, SNU-16, read-out: IC50 in cell proliferation assay, cell line SNU-16 (FGFR2 amplification)", "value": "> 31600", "unit": "nM"}, {"measurement": "IC50", "setting": "Homo sapiens, SNU-C2B, read-out: IC50 in cell proliferation assay, cell line SNU-C2B (EGFR p.R165Q)", "value": 36, "unit": "nM"}, {"measurement": "IC50", "setting": "Homo sapiens, SU-DHL-1, read-out: IC50 in cell proliferation assay, cell line SU-DHL-1 (NPM1-ALK)", "value": 7710, "unit": "nM"}, {"measurement": "IC50", "setting": "Homo sapiens, SU-DHL-6, read-out: IC50 in cell proliferation assay, cell line SU-DHL-6", "value": "> 31600", "unit": "nM"}, {"measurement": "IC50", "setting": "Homo sapiens, SUP-T1, read-out: IC50 in cell proliferation assay, cell line SUP-T1", "value": "> 31600", "unit": "nM"}, {"measurement": "IC50", "setting": "Homo sapiens, SW48, read-out: IC50 in cell proliferation assay, cell line SW48 (EGFR p.G719S)", "value": 34, "unit": "nM"}, {"measurement": "IC50", "setting": "Homo sapiens, SW480, read-out: IC50 in cell proliferation assay, cell line SW480", "value": 29, "unit": "nM"}, {"measurement": "IC50", "setting": "Homo sapiens, SW626, read-out: IC50 in cell proliferation assay, cell line SW626", "value": 44, "unit": "nM"}, {"measurement": "IC50", "setting": "Homo sapiens, SW780, read-out: IC50 in cell proliferation assay, cell line SW780 (FGFR3-BAIAP2L1)", "value": 447, "unit": "nM"}, {"measurement": "IC50", "setting": "Homo sapiens, SW837, read-out: IC50 in cell proliferation assay, cell line SW837", "value": 220, "unit": "nM"}, {"measurement": "IC50", "setting": "Homo sapiens, SW872, read-out: IC50 in cell proliferation assay, cell line SW872 (BRAF p.V600E)", "value": 25, "unit": "nM"}, {"measurement": "IC50", "setting": "Homo sapiens, SW900, read-out: IC50 in cell proliferation assay, cell line SW900", "value": 35, "unit": "nM"}, {"measurement": "IC50", "setting": "Homo sapiens, SW948, read-out: IC50 in cell proliferation assay, cell line SW948", "value": 62, "unit": "nM"}, {"measurement": "IC50", "setting": "Homo sapiens, SW982, read-out: IC50 in cell proliferation assay, cell line SW982 (BRAF p.V600E)", "value": 972, "unit": "nM"}, {"measurement": "IC50", "setting": "Homo sapiens, SW-620, read-out: IC50 in cell proliferation assay, cell line SW620", "value": 24, "unit": "nM"}, {"measurement": "IC50", "setting": "Homo sapiens, T98G, read-out: IC50 in cell proliferation assay, cell line T98G", "value": "> 31600", "unit": "nM"}, {"measurement": "IC50", "setting": "Homo sapiens, TCC-SUP, read-out: IC50 in cell proliferation assay, cell line TCCSUP", "value": "> 31600", "unit": "nM"}, {"measurement": "IC50", "setting": "Homo sapiens, THP-1, read-out: IC50 in cell proliferation assay, cell line THP-1", "value": 25, "unit": "nM"}, {"measurement": "IC50", "setting": "Homo sapiens, U2OS, read-out: IC50 in cell proliferation assay, cell line U2OS", "value": 10600, "unit": "nM"}, {"measurement": "IC50", "setting": "Homo sapiens, U-87 MG, read-out: IC50 in cell proliferation assay, cell line U-87MG ATCC", "value": 1090, "unit": "nM"}, {"measurement": "IC50", "setting": "Homo sapiens, U-118-MG, read-out: IC50 in cell proliferation assay, cell line U-118MG", "value": "> 31600", "unit": "nM"}, {"measurement": "IC50", "setting": "Homo sapiens, UMUC3, read-out: IC50 in cell proliferation assay, cell line UM-UC-3", "value": 801, "unit": "nM"}, {"measurement": "IC50", "setting": "Hs766T, read-out: IC50 in cell proliferation assay, Hs 766T cell line", "value": 22, "unit": "nM"}, {"measurement": "IC50", "setting": "L-82, read-out: IC50 in cell proliferation assay, L-82 cell line (NPM1-ALK)", "value": 950, "unit": "nM"}, {"measurement": "IC50", "setting": "Rh30, read-out: IC50 in cell proliferation assay, cell line Rh30", "value": "> 31600", "unit": "nM"}, {"measurement": "IC50", "setting": "read-out: IC50 in cell proliferation assay, 11-18 cell line (EGFR p.L858R)", "value": "> 31600", "unit": "nM"}, {"measurement": "IC50", "setting": "read-out: IC50 in cell proliferation assay, Hs 852.T cell line", "value": 345, "unit": "nM"}, {"measurement": "IC50", "setting": "read-out: IC50 in cell proliferation assay, JAR cell line", "value": "> 31600", "unit": "nM"}, {"measurement": "IC50", "setting": "read-out: IC50 in cell proliferation assay, cell line 5637", "value": 8000, "unit": "nM"}, {"measurement": "IC50", "setting": "read-out: IC50 in cell proliferation assay, cell line A-388", "value": "> 31600", "unit": "nM"}, {"measurement": "IC50", "setting": "read-out: IC50 in cell proliferation assay, cell line DB", "value": "> 31600", "unit": "nM"}, {"measurement": "IC50", "setting": "read-out: IC50 in cell proliferation assay, cell line DEL (NPM1-ALK)", "value": "> 31600", "unit": "nM"}, {"measurement": "IC50", "setting": "read-out: IC50 in cell proliferation assay, cell line ES-2 (BRAF p.V600E)", "value": 242, "unit": "nM"}, {"measurement": "IC50", "setting": "read-out: IC50 in cell proliferation assay, cell line PA-1", "value": 556, "unit": "nM"}, {"measurement": "IC50", "setting": "read-out: IC50 in cell proliferation assay, cell line PC-3", "value": "> 31600", "unit": "nM"}, {"measurement": "IC50", "setting": "read-out: IC50 in cell proliferation assay, cell line RD", "value": 59, "unit": "nM"}, {"measurement": "IC50", "setting": "read-out: IC50 in cell proliferation assay, cell line RKO (BRAF p.V600E)", "value": 367, "unit": "nM"}, {"measurement": "IC50", "setting": "read-out: IC50 in cell proliferation assay, cell line RL", "value": "> 31600", "unit": "nM"}, {"measurement": "IC50", "setting": "read-out: IC50 in cell proliferation assay, cell line RT-4 (FGFR3-TACC3)", "value": 21300, "unit": "nM"}, {"measurement": "IC50", "setting": "read-out: IC50 in cell proliferation assay, cell line SR (NPM1-ALK)", "value": 25500, "unit": "nM"}, {"measurement": "IC50", "setting": "read-out: IC50 in cell proliferation assay, cell line T24", "value": 92, "unit": "nM"}, {"measurement": "IC50", "setting": "read-out: IC50 in cell proliferation assay, cell line TT (RET p.C634W)", "value": "> 31600", "unit": "nM"}, {"measurement": "IC50", "setting": "read-out: IC50 in cell proliferation assay, cell line VA-ES-BJ", "value": "> 31600", "unit": "nM"}]}
